# Test results reported in patent US4963542A, “Cephalosporin derivatives” (Takeda Chemical Industries, Ltd., priority 1976, dated 1990).
# Assays:
# Proteus mirabilis GN4359 = assay: Minimal inhibitory concentration, agar serial dilution; assay type: cell-based; settings: TSA, inoculum 10^7 /ml
# Source text: (§1) (a) Minimal inhibitory concentrations (Table 1 and 2)
# (§2) Method: Agar serial dilution
# [1] = test system: Citrobacter freundii GN99; assay: as above; assay type: cell-based; settings: TSA, inoculum 10^7 /ml
# Source text: as §1, §2
# Proteus rettgeri TN338 = assay: as above; assay type: cell-based; settings: TSA, inoculum 10^7 /ml
# Source text: as §1, §2
# [2] = test system: Klebsiella pneumoniae GN-3835; assay: as above; assay type: cell-based; settings: TSA, inoculum 10^7 /ml
# Source text: as §1, §2
# Proteus rettgeri GN4733 = assay: as above; assay type: cell-based; settings: TSA, inoculum 10^7 /ml
# Source text: as §1, §2
# [3] = test system: Enterobacter cloacae TN1282; assay: as above; assay type: cell-based; settings: TSA, inoculum 10^7 /ml
# Source text: as §1, §2
# Proteus morganii IFO3168 = assay: as above; assay type: cell-based; settings: TSA, inoculum 10^7 /ml
# Source text: as §1, §2
# [4] = test system: Proteus vulgaris IFO 3988; assay: as above; assay type: cell-based; settings: TSA, inoculum 10^7 /ml
# Source text: as §1, §2
# [5] = test system: Serratia marcescens IFO 12648; assay: as above; assay type: cell-based; settings: TSA, inoculum 10^7 /ml
# Source text: as §1, §2
# [6] = test system: Staphylococcus aureus 1840; assay: as above; assay type: cell-based; settings: TSA, inoculum 10^7 /ml
# Source text: as §1, §2
# Klebsiella pneumoniae DT = assay: as above; assay type: cell-based; settings: TSA, inoculum 10^7 /ml
# Source text: as §1, §2
# Escherichia coli 0-111 [7] = assay: as above; assay type: cell-based; settings: TSA, inoculum 10^7 /ml
# Source text: as §1, §2
# Escherichia coli T-7 = assay: as above; assay type: cell-based; settings: TSA, inoculum 10^7 /ml
# Source text: as §1, §2
# [8] = test system: Escherichia coli NIHJ JC-2; assay: as above; assay type: cell-based; settings: TSA, inoculum 10^7 /ml
# Source text: as §1, §2
# Proteus vulgaris GN4413 = assay: as above; assay type: cell-based; settings: TSA, inoculum 10^7 /ml
# Source text: as §1, §2
# [9] = test system: Staphylococcus aureus 209P; assay: as above; assay type: cell-based; settings: TSA, inoculum 10^7 /ml
# Source text: as §1, §2
# [10] = test system: Citrobacter freundii GN1706; assay: as above; assay type: cell-based; settings: TSA, inoculum 10^7 /ml
# Source text: as §1, §2
# Serratia marcescens TN24 = assay: as above; assay type: cell-based; settings: TSA, inoculum 10^7 /ml
# Source text: as §1, §2
# Escherichia coli 0-111 [11] = assay: Therapeutic effects on infected mice; assay type: in vivo, Male mouse, ICR/SLC; settings: Escherichia coli, 0111, sc, 168 h, s.c. single dose immediately after intraperitoneal infection, 7 days observation
# Procedure: The therapeutic efficacies of several representative compounds [I] of this invention and of cephaloridine on infected mice are also set forth in the tables.
# (b) Therapeutic effects on infected mice (Table 3 and Table 4)
# Test animal: Male mouse, ICR/SLC
# A group of five animals was employed per drug.
# Route of infection: Intraperitoneal
# Infectious bacteria: Escherichia coli 0-111
# Period of observation: 7 days
# Method of administration: Test compound (1 mg, 10 mg, 100 mg or 200 mg) was dissolved in sterile saline solution (100 ml) and 0.2 ml of the solution was administered subcutaneously as a single dose immediately after infection. Two fold dilutions of each solution were administered to five groups of 5 mice each.
SMILES,Minimal inhibitory concentration (MIC) (Proteus mirabilis GN4359),Minimal inhibitory concentration (MIC) [1],Minimal inhibitory concentration (MIC) (Proteus rettgeri TN338),Minimal inhibitory concentration (MIC) [2],Minimal inhibitory concentration (MIC) (Proteus rettgeri GN4733),Minimal inhibitory concentration (MIC) [3],Minimal inhibitory concentration (MIC) (Proteus morganii IFO3168),Minimal inhibitory concentration (MIC) [4],Minimal inhibitory concentration (MIC) [5],Minimal inhibitory concentration (MIC) [6],Minimal inhibitory concentration (MIC) (Klebsiella pneumoniae DT),Minimal inhibitory concentration (MIC) (Escherichia coli 0-111 [7]),Minimal inhibitory concentration (MIC) (Escherichia coli T-7),Minimal inhibitory concentration (MIC) [8],Minimal inhibitory concentration (MIC) (Proteus vulgaris GN4413),Minimal inhibitory concentration (MIC) [9],Minimal inhibitory concentration (MIC) [10],Minimal inhibitory concentration (MIC) (Serratia marcescens TN24),ED50 (Escherichia coli 0-111 [11]; Table 3) [mg/kg],ED50 (Escherichia coli 0-111 [11]; Table 4) [mg/kg]
"O=C(Cc1cccs1)N[C@@H]1C(=O)N2C(C(=O)[O-])=C(C[n+]3ccccc3)CS[C@H]12 [Cephaloridine, 7-(2-thienylacetamido)-3-(1-pyridyl)methyl-3-cephem-4-carboxylic acid betaine, reference compound]",6.25,50,1.56,12.5,> 100,> 100,> 100,6.25,> 100,0.39,1.56,1.56,> 100,3.13,> 100,0.05,> 100,> 100,2.6,1.81
"CC(=O)OCC1=C(C(=O)O)N2C(=O)C(NC(=O)/C(=N\O)c3csc(=N)[nH]3)C2SC1 (stereo not drawn) [Example 5, sodium 7-[2-(2-imino-4-thiazolin-4-yl)-2-hydroxyimino-acetamido]-3-acetoxymethyl-3-cephem-4-carboxylate (syn-isomer)]",0.05,0.05,≤ 0.012,0.05,0.024,6.25,0.20,0.05,6.25,0.39,≤ 0.012,≤ 0.012,0.39,0.024,12.5,0.39,0.10,1.56,0.033,
"Cn1nnnc1SCC1=C(C(=O)O)N2C(=O)C(NC(=O)/C(=N\O)c3csc(=N)[nH]3)C2SC1 (stereo not drawn) [Example 12, sodium 7-[2-(2-imino-4-thiazolin-4-yl)-2-hydroxyimino-acetamido]-3-(1-methyl-1H-tetrazol-5-yl)thiomethyl-3-cephem-4-carboxylate (syn-isomer)]",0.10,0.05,≤ 0.012,0.10,0.05,1.56,0.024,0.05,0.78,0.78,0.024,≤ 0.012,0.78,0.05,6.25,0.39,0.10,0.39,0.028,
